Results from paper PMC7070167, “Cell‐permeable high‐affinity tracers for Gq proteins provide structural insights, reveal distinct binding kinetics and identify small molecule inhibitors” (British Journal of Pharmacology, 2020).
Where two headings read alike, the source gives them in different places. *1 amine or outer side, *2 acyl side, *3 side chain or, on linkers, in order; H or OH if unused. Where a SMILES comes first, the peptide text is derived from it. Bridges are numbered along the chain shown (N, C = ends). [ ]: non-standard residue; d: D form. The star is where a group is joined. Leu(3R-OH,Nα-propionyl) = CCC(=O)N[C@H](C(=O)*)[C@H](O)C(C)C; X1 = CC(C)[C@@H](O[*:3])[C@H](N[*:1])C(=O)[*:2]; NMeT = CN[C@H](C(=O)O)[C@@H](C)O; dPhLac = O=C(O)[C@H](O)Cc1ccccc1; NMeA = CN[C@@H](C)C(=O)O; NMeDha = C=C(NC)C(=O)O

Target: T1, Gq proteins (Homo sapiens, UniProt P50148)
T1 construct: Native cell membrane preparations from rat brain cortex and human blood platelets; host or cells: human platelets (intact suspension or membrane preparation)
T1 sequence (P50148 1-359): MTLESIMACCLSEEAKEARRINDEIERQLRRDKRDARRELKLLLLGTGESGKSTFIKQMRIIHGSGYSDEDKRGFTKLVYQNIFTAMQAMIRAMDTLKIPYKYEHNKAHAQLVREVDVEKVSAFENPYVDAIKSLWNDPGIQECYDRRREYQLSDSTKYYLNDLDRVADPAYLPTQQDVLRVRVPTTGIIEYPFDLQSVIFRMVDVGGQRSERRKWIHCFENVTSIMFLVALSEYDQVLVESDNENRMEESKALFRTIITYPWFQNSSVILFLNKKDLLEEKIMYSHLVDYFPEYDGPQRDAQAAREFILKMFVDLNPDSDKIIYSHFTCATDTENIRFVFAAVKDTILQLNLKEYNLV
Assay: High-throughput (96-well) competition binding assay at human platelet membranes
Settings: for Ki: versus [³H]PSB-15900 (5 nM), high-throughput 96-well format, 37°C
Description: The experiments were performed in 50‐mM Tris–HCl buffer, pH 7.4. The final assay volume of 200 μl contained 5 μl of test compound in DMSO, 50 μl of [^3H]PSB‐15900 or [^3H]PSB‐16254, respectively, in buffer, 5 nM of final concentration, and 100 μl of human platelet membrane preparation (50 μg of protein) or intact human platelets (7.5 × 10^6 cells/vial). Non‐specific binding was determined in the presence of 5‐μM FR. The incubation was started by the addition of membrane preparation and was performed at 37°C for 1 hr with gentle shaking. It was terminated by rapid vacuum filtration through GF/C glass‐fibre filters using a Brandel 24‐well harvester. The filters were rinsed three times with approximately 3 ml each of ice‐cold Tris–HCl buffer, 50 mM, pH 7.4 containing 0.1% Tween 20 and 0.1% BSA, to separate bound from free radioligand. The filters were punched out and transferred to scintillation vials. Luma Safe® scintillation cocktail (2.5 ml) was added, and after 6 hr of incubation, the samples were counted for 1 min each, using a liquid scintillation counter (counting efficiency 53%). Experiments in the presence of GTP were additionally performed after preincubation of the membrane preparation with GTP for 1 hr. pIC50 and pKi values were calculated using equations for one‐site competition as implemented in GraphPad Prism 6.01 (GraphPad Inc., La Jolla, CA, USA).
Competition binding experiments were performed as described above (for incubation conditions, washing steps, and buffers) but on 96‐well plates using a Brandel 96‐well plate harvester with GF/C Unifilters (Perkin‐Elmer). After harvesting, 50 μl per cavity of Ultima Gold scintillation cocktail (Perkin‐Elmer) was added, and counting was performed as described above.

C=C1C(=O)N[C@@H](C)C(=O)N(C)[C@@H](C)C(=O)N[C@@H]([C@H](OC(=O)[C@@H](NC(=O)CC)[C@H](O)C(C)C)C(C)C)C(=O)N(C)[C@@H]([C@@H](C)OC)C(=O)O[C@H](C(C)C)[C@H](NC(C)=O)C(=O)O[C@H](Cc2ccccc2)C(=O)N1C [FR, FR900359] (Ac-[X1][dPhLac][NMeDha]A[NMeA][X1](Leu(3R-OH,Nα-propionyl))[NMeT](Me); ester 1-C)
inhibition of radioligand binding (positive control) (1 μM, 96‐well plates): complete inhibition
Ki (read-out: Ki): 6.56 ± 1.92 nM
Ki (read-out: pKi (converted)): 6.46 nM
